The test system of data set [1] is SH-SY5Y cells. The experiment in a line: Uptake of cyclo(his-pro) and salsolinol into SH-SY5Y cells with transport inhibitors. The following applies: substrates 10 µmol/l, 5 min; inhibitors 10 µmol/l (decynium-22 1 µmol/l). Type of data set: cell-based, human. How it is done:
(§1) (D) Relative quantitative real-time expression of OCT2 mRNA in distinct areas of normal human brain and neuroepithelial tumors (TaqMan Assay) normalized to GAPDH.
(§2) For uptake experiments, cells were grown on polystyrene dishes of 60 mm diameter to at least 80% confluence. Prior to addition of test compounds, culture medium was replaced by 3 ml HEPES-modified Krebs buffer (140.0 mmol/l NaCl, 5.0 mmol/l KCl, 2.0 mmol/l CaCl2, 1.0 mmol/l MgCl2, 10.0 mmol/l HEPES, and 5.0 mmol/l D-glucose, adjusted to pH 7.40), and cells were left to equilibrate for 60 min at 37°C. Uptake was terminated after indicated times by washing cells with ice-cold buffer. Cells were lysed with 1 ml of 4 mmol/l perchloric acid and lysates subjected to LC-MS-MS quantification. Cellular protein content was determined after solubilization of perchloric acid precipitates with 1 ml of […] NaOH using the bicinchoninic assay (BCA Protein Assay Kit, Pierce).
(§3) Chromatographic separations were performed on Hypercarb (5 µm, 50×2.1 mm; Thermo Electron), Aquasil C18 (3 µm, 100×4.6 mm; Thermo Electron), or Hilic columns (5 µm, 100×3.0 mm; Waters Atlantis) by isocratic or gradient elution using 0.1% aqueous formic acid (A) and acetonitrile or methanol (B) as solvent system. For quantification, SRM transitions of a precursor ion [M+H]^+ into a specific fragment ion (peak area ratios relative to IS) were recorded in positive ESI mode at 1.0–1.5 mTorr collision pressure and 10–40 eV collision energy. External calibration curves were obtained from serial dilutions of the analyte in 4 mmol/l HClO4 by linear or logistic regression. Detection limit was at least 0.001 nmol/mg protein.

Data set [2] concerns HTZ-146 cells. The experiment in a line: Uptake of cyclo(his-pro) and salsolinol into HTZ-146 cells with transport inhibitors. Type of data set: cell-based, human. The following applies: substrates 10 µmol/l, 5 min; inhibitors 10 µmol/l (decynium-22 1 µmol/l). As for the experimental part: as §1, §2, §3
The subject of data set [3] is SH-SY5Y cells. The data set can be described thus: MTT reduction cell viability assay, SH-SY5Y cells. The format is cell-based, human. How it is done: (§4) Cell viability was assessed in HEK-293 cells, human dopaminergic neuroblastoma cells (SH-SY5Y) and human glioblastoma cells (HTZ-146) by the MTT test as described.[22] […] For indication of metabolic activity, cells were treated with MTT reagent (15 µl of 1 mg/ml stock solution per well) for 1 h, and after drying of culture plates for 1 h at 37°C, the resulting formazan dye was extracted with isopropanol/HCl (100 µl 0.04 mol/l per well) and absorbance was determined spectrophotometrically at 568 nm. Results were in agreement with the data obtained by the tryptan blue exclusion method (data not shown).
Background: Tetrazolium assays rely on reduction of a dye to a coloured formazan, in cell work by metabolically active cells.

Data set [4] concerns HTZ-146 cells. The data set can be described thus: MTT reduction cell viability assay, HTZ-146 cells. The format is cell-based, human. How it is done: as §4
The target in data set [5] is T1, norepinephrine transporter (NET) (Homo sapiens, UniProt P23975).
T1 construct: expressed in transfected cells; host or cells: HEK-293, stably transfected; cDNA from C; Pifl (University of Vienna)
The data set can be described thus: Specific uptake into norepinephrine transporter (NET) transfected HEK-293 cells. Type of data set: cell-based. The following applies: 10 µmol/l, 5 min incubation. An excerpt: Pifl (University of Vienna).
1. Burnette WB, Bailey MD, Kukoyi S, Blakely RD, Trowbridge CG, et al. (1996) Human norepinephrine transporter kinetics using rotating disk electrode voltammetry. Anal Chem 68: 2932–2938. (0.90 MB TIF) Click here for additional data file.

Substrate in data set [6]: O=C1NC(Cc2c[nH]cn2)C(=O)N2CCCC12
The data set can be described thus: cells, lysate or membranes. The following applies: mean (s.e.m.), pH 7.4, 37.0 °C.

Setting [7] is: 48 h, non-pretreated, read-out: EC50 (95% confidence interval), cell viability.
Setting [8] is: other: specific uptake, 1 min of loading, n = 3.

Marks after values point to notes of the source that are not given here.

T1 sequence (P23975 whole entry): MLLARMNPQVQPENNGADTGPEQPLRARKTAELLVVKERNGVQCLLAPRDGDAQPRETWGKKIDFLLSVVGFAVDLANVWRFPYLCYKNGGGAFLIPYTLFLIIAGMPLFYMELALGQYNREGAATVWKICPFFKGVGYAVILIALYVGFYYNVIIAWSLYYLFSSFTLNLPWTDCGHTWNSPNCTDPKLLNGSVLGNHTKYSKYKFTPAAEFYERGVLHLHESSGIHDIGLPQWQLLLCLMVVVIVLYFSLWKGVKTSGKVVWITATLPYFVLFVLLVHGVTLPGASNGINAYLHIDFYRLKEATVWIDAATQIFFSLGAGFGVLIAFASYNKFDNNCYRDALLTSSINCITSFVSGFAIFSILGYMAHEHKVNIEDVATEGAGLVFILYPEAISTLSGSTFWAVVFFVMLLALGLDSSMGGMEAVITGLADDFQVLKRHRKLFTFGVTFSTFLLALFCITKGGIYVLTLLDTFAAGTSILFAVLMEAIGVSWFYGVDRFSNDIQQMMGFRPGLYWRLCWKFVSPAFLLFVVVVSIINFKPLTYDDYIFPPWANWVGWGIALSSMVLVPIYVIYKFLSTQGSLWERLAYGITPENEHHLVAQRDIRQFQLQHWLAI

Regarding `CCN1/C(=C/c2ccc3ccccc3[n+]2CC)C=Cc2ccccc21.[I-]` [decynium-22], the “effect of coincubated inhibitor on uptake of cyclo(his-pro) and salsolinol” value (from here on “effect of coincubated inhibitor”) in data set [1] and in data set [2] was “almost abolished” throughout.
Regarding `C[C@]12N[C@H](Cc3ccccc31)c1ccccc12` [(+)-MK-801, reference compound], the “effect on cell death caused by glutamate as well as salsolinol” value in data set [3] ((+)-MK-801 10 µmol/l present) and in data set [4] ((+)-MK-801 10 µmol/l present) was “attenuated” throughout.
Take `NCCc1ccc(O)cc1` [tyramine, reference compound]: in data set [5], the “substrate of NET (specific uptake)” value is recorded as “excellent NET substrate”.
Consider `N[C@@H](CCC(=O)O)C(=O)O` [glutamate, reference compound], for which the EC50 in data set [3] (setting [7]) was 389 µM; in data set [4] (setting [7]) it was 585 µM.
Regarding `CNCCCN1c2ccccc2CCc2ccccc21` [desipramine], the “effect of coincubated inhibitor” value in data set [1] and in data set [2] was “not different from control conditions” throughout.
For the molecule `CC(COc1ccccc1)N(CCCl)Cc1ccccc1` (stereo not drawn) [phenoxybenzamine], the “effect of coincubated inhibitor” value in data set [1] and in data set [2] was “almost abolished” throughout.
Turning to `Fc1ccc(C(OCCN2CCN(CCCc3ccccc3)CC2)c2ccc(F)cc2)cc1` [GBR12909], the “effect of coincubated inhibitor” value in data set [1] and in data set [2] was “not different from control conditions” in each case.

B1: organic cation transporter OCT2 (wild-type 400R) (Homo sapiens; S270A) (protein)
chain: MPTTVDDVLEHGGEFHFFQKQMFFLLALLSATFAPIYVGIVFLGFTPDHRCRSPGVAELSLRCGWSPAEELNYTVPGPGPAGEASPRQCRRYEVDWNQSTFDCVDPLASLDTNRSRLPLGPCRDGWVYETPGSSIVTEFNLVCANSWMLDLFQSSVNVGFFIGSMSIGYIADRFGRKLCLLTTVLINAAAGVLMAISPTYTWMLIFRLIQGLVSKAGWLIGYILITEFVGRRYRRTVGIFYQVAYTVGLLVLAGVAYALPHWRWLQFTVALPNFFFLLYYWCIPESPRWLISQNKNAEAMRIIKHIAKKNGKSLPASLQRLRLEEETGKKLNPSFLDLVRTPQIRKHTMILMYNWFTSSVLYQGLIMHMGLAGDNIYLDFFYSALVEFPAAFMIILTIDRIGRRYPWAASNMVAGAACLASVFIPGDLQWLKIIISCLGRMGITMAYEIVCLVNAELYPTFIRNLGVHICSSMCDIGGIITPFLVYRLTNIWLELPLMVFGVLGLVAGGLVLLLPETKGKALPETIEEAENMQRPRKNKEKMIYLQVQKLDIPLN
B1: in data set [6] (setting [8]), the Km is 74 (12) µmol/l, the Vmax was 0.003 µmol/min/mg and the Vmax/Km is reported as 41 µl/mg protein/min.

B2: OCT2 variant K432Q (Homo sapiens; K432Q/S270A) (protein)
chain: MPTTVDDVLEHGGEFHFFQKQMFFLLALLSATFAPIYVGIVFLGFTPDHRCRSPGVAELSLRCGWSPAEELNYTVPGPGPAGEASPRQCRRYEVDWNQSTFDCVDPLASLDTNRSRLPLGPCRDGWVYETPGSSIVTEFNLVCANSWMLDLFQSSVNVGFFIGSMSIGYIADRFGRKLCLLTTVLINAAAGVLMAISPTYTWMLIFRLIQGLVSKAGWLIGYILITEFVGRRYRRTVGIFYQVAYTVGLLVLAGVAYALPHWRWLQFTVALPNFFFLLYYWCIPESPRWLISQNKNAEAMRIIKHIAKKNGKSLPASLQRLRLEEETGKKLNPSFLDLVRTPQIRKHTMILMYNWFTSSVLYQGLIMHMGLAGDNIYLDFFYSALVEFPAAFMIILTIDRIGRRYPWAASNMVAGAACLASVFIPGDLQWLQIIISCLGRMGITMAYEIVCLVNAELYPTFIRNLGVHICSSMCDIGGIITPFLVYRLTNIWLELPLMVFGVLGLVAGGLVLLLPETKGKALPETIEEAENMQRPRKNKEKMIYLQVQKLDIPLN
On to B2, for which, in data set [6] (other: 1 min of loading), the Km is reported as 78 (12) µmol/l and the Vmax stood at 0.0031 µmol/min/mg.

B3: OCT2 variant M165I (Homo sapiens; M165I/S270A) (protein)
chain: MPTTVDDVLEHGGEFHFFQKQMFFLLALLSATFAPIYVGIVFLGFTPDHRCRSPGVAELSLRCGWSPAEELNYTVPGPGPAGEASPRQCRRYEVDWNQSTFDCVDPLASLDTNRSRLPLGPCRDGWVYETPGSSIVTEFNLVCANSWMLDLFQSSVNVGFFIGSISIGYIADRFGRKLCLLTTVLINAAAGVLMAISPTYTWMLIFRLIQGLVSKAGWLIGYILITEFVGRRYRRTVGIFYQVAYTVGLLVLAGVAYALPHWRWLQFTVALPNFFFLLYYWCIPESPRWLISQNKNAEAMRIIKHIAKKNGKSLPASLQRLRLEEETGKKLNPSFLDLVRTPQIRKHTMILMYNWFTSSVLYQGLIMHMGLAGDNIYLDFFYSALVEFPAAFMIILTIDRIGRRYPWAASNMVAGAACLASVFIPGDLQWLKIIISCLGRMGITMAYEIVCLVNAELYPTFIRNLGVHICSSMCDIGGIITPFLVYRLTNIWLELPLMVFGVLGLVAGGLVLLLPETKGKALPETIEEAENMQRPRKNKEKMIYLQVQKLDIPLN
Consider B3, for which, in data set [6] (other: 1 min of loading), the Km was 78 (15) µmol/l and the maximal velocity (Vmax) was determined as 0.0029 µmol/min/mg.

B4: OCT2 variant R400C (Homo sapiens; R400C/S270A) (protein)
chain: MPTTVDDVLEHGGEFHFFQKQMFFLLALLSATFAPIYVGIVFLGFTPDHRCRSPGVAELSLRCGWSPAEELNYTVPGPGPAGEASPRQCRRYEVDWNQSTFDCVDPLASLDTNRSRLPLGPCRDGWVYETPGSSIVTEFNLVCANSWMLDLFQSSVNVGFFIGSMSIGYIADRFGRKLCLLTTVLINAAAGVLMAISPTYTWMLIFRLIQGLVSKAGWLIGYILITEFVGRRYRRTVGIFYQVAYTVGLLVLAGVAYALPHWRWLQFTVALPNFFFLLYYWCIPESPRWLISQNKNAEAMRIIKHIAKKNGKSLPASLQRLRLEEETGKKLNPSFLDLVRTPQIRKHTMILMYNWFTSSVLYQGLIMHMGLAGDNIYLDFFYSALVEFPAAFMIILTIDCIGRRYPWAASNMVAGAACLASVFIPGDLQWLKIIISCLGRMGITMAYEIVCLVNAELYPTFIRNLGVHICSSMCDIGGIITPFLVYRLTNIWLELPLMVFGVLGLVAGGLVLLLPETKGKALPETIEEAENMQRPRKNKEKMIYLQVQKLDIPLN
As to B4, in data set [6] (other: 1 min of loading), the Km is recorded as 51 (6)^# µmol/l and the Vmax is 0.001 µmol/min/mg.

B5: OCT2 variant A270S (Homo sapiens) (protein)
chain: MPTTVDDVLEHGGEFHFFQKQMFFLLALLSATFAPIYVGIVFLGFTPDHRCRSPGVAELSLRCGWSPAEELNYTVPGPGPAGEASPRQCRRYEVDWNQSTFDCVDPLASLDTNRSRLPLGPCRDGWVYETPGSSIVTEFNLVCANSWMLDLFQSSVNVGFFIGSMSIGYIADRFGRKLCLLTTVLINAAAGVLMAISPTYTWMLIFRLIQGLVSKAGWLIGYILITEFVGRRYRRTVGIFYQVAYTVGLLVLAGVAYALPHWRWLQFTVSLPNFFFLLYYWCIPESPRWLISQNKNAEAMRIIKHIAKKNGKSLPASLQRLRLEEETGKKLNPSFLDLVRTPQIRKHTMILMYNWFTSSVLYQGLIMHMGLAGDNIYLDFFYSALVEFPAAFMIILTIDRIGRRYPWAASNMVAGAACLASVFIPGDLQWLKIIISCLGRMGITMAYEIVCLVNAELYPTFIRNLGVHICSSMCDIGGIITPFLVYRLTNIWLELPLMVFGVLGLVAGGLVLLLPETKGKALPETIEEAENMQRPRKNKEKMIYLQVQKLDIPLN
Turning to B5, in data set [6] (other: 1 min of loading), the Km is listed as 75 (11) µmol/l and the Vmax stood at 0.0032 µmol/min/mg.

As a reminder, the EC50 is the concentration that produces a half-maximal response. As a reminder, the Vmax is the top rate of the reaction or transport when substrate is in excess.

The record behind these values is publication PMC1851987, “Identification of the Endogenous Key Substrates of the Human Organic Cation Transporter OCT2 and Their Implication in Function of Dopaminergic Neurons” (PLoS ONE, 2007).
